According to US20230086703A1, “N-(4-(5-chloropyridin-3-yl)phenyl)-2-(2-(cyclopropanesulfonamido)pyrimidin-4-yl) butanamide derivatives and related compounds as human CTPS1 inhibitors for the treatment of proliferative diseases” (Step Pharma S.A.S., priority 2019, published 2023):

Key:
human CTPS1 [1] = molecular target: T1, human CTPS1 (Homo sapiens, UniProt P17812); test: RapidFire/MS-based enzyme selectivity assay (human CTPS1 versus CTPS2), CTPS1 isoform; type: biochemical
T1 construct: FLAG (with GG linker); His8 (with GG linker); purchased Proteros biostructures GmbH
T1 sequence (P17812 1-591): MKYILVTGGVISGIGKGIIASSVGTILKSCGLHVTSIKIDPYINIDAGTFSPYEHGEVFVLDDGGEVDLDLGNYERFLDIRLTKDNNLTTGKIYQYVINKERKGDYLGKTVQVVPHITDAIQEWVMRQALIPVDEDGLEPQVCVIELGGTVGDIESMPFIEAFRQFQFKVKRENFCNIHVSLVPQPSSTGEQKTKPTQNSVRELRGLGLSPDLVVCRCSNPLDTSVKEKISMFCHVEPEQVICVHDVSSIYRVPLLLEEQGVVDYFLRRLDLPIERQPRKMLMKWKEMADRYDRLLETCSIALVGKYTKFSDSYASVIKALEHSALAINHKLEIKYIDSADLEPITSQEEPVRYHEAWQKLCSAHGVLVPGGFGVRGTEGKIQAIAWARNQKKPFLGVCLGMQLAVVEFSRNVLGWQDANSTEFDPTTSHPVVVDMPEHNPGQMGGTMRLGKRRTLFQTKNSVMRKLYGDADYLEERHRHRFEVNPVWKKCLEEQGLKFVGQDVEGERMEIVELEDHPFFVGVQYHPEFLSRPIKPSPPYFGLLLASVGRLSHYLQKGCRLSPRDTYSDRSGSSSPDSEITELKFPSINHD
Method: Human CTPS1 Versus CTPS2 Selectivity Assessment by RapidFire/MS Analysis.
The enzyme inhibitory activities against each target isoform of interest may be determined for the compounds of the invention using an optimised RapidFire high-throughput mass spectrometry (RF/MS) assay format. RF/MS assays for both human CTPS1 and CTPS2 may be performed in assay buffer consisting of 50 mM HEPES (Merck), 20 mM MgCl2, 5 mM KCl, 1 mM DTT, 0.01% Tween-20, pH to 8.0 accordingly. Human full-length active C-terminal FLAG-His-tag CTPS1 (UniProtKB—P17812, CTPS1[1-591]-[…] (CTPS1[1-591]-SEQ ID NO: 1)) may be obtained from Proteros biostructures GmbH. Human full length active C-terminal FLAG-His-Avi tagged CTPS2 (UniProtKB—Q9NRF8, CTPS2 [1-586]-[…] (CTPS2 [1-586]—SEQ ID NO: 2)) may be obtained from Harker Bio.
Human CTPS (1 or 2) protein may be prepared in 1× assay buffer to the final working protein concentration required for the reaction. A 2 uL volume per well of 2×CTPS (1 or 2) protein may be mixed with 40 nL of compound using acoustic (ECHO) delivery and incubated for 10 minutes at 25° C. Each isoform enzymatic reaction may be subsequently initiated by addition of 2 uL per well of a 2× substrate mix in assay buffer. For hCTPS1: ATP (0.3 mM), UTP (0.2 mM), GTP (0.07 mM) and L-glutamine (0.1 mM). For hCTPS2: ATP (0.1 mM), UTP (0.04 mM), GTP (0.03 mM) and L-glutamine (0.1 mM). Each mixture may be incubated for an appropriate amount of time per isoform within the determined linear phase of the reaction at 25° C. A 80 uL volume of stop solution (1% formic acid with 0.5 uM ^13C9-^15N3-CTP in H2O) may be added and the plate immediately heat-sealed and centrifuged for 10 minutes at 4,000 rpm. Following centrifugation, plates may be loaded onto the Agilent RapidFire microfluidic solid phase extraction system coupled to an API4000 triple quadrupole mass spectrometer (RF/MS) for analysis.
In all cases, the enzyme converts UTP to CTP. Highly specific and sensitive multiple reaction monitoring (MRM) MS methods may be optimised for the detection of the enzymatic reaction product, CTP, and the stable isotope labelled product standard ^13C9-^15N3-CTP. Readout for data analysis may be calculated as the ratio between the peak area of the product CTP and the internal standard ^13C9-^15N3-CTP. For data reporting, the following equation may be used:
(R=ratio/readout, P=product signal area, IS=internal standard signal area)
For each screening plate, the means of the negative (DMSO) and positive control values were used for the calculation of the respective assay window (S/B) and Z′ values. The median of the respective control values was used for calculation of percent inhibition according to the following equation:
(I=Inhibition, Rneq=median of negative control readout values, Rpos=median of positive control readout values, Rsample=sample readout value)
Percentage inhibition was then plotted against compound concentration, and the 50% inhibitory concentration (IC50) was determined from the resultant concentration-response curve.
Fold selectivity between CTPS1 and CTPS2 was subsequently calculated according to the following equation: […]

human CTPS1 [2] = molecular target: T1, human CTPS1; test: Human CTPS1 enzyme inhibition, ADP-Glo Max assay; type: biochemical; details: ADP-Glo Max assay; Table 10; read-out: Human CTPS1 Enzyme Inhibition, IC50 grouped by potency range (CTPS1)
In short: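 Enzyme preincubated with compound for 10 min at 25 °C in 50 mM Tris pH 8.0, 10 mM MgCl2, 0.01% Tween-20, 2 mM L-cysteine. ATP-to-ADP conversion detected by ADP-Glo Max luminescence after 60 min depletion and 60 min development steps. Percentage inhibition calculated per concentration.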

[3] = Table 16, human CTPS1 over human CTPS2, RapidFire/MS IC50 values
[4] = RapidFire/MS IC50 values of CTPS1 and CTPS2, Table 15

SMILES | IC50 (human CTPS1 [2]) [nM] | also measured
CCOc1cncc(-c2ccc(C(=O)NC(CC)c3csc(NS(=O)(=O)C4CC4)n3)c(F)c2)n1 (racemic) [R62, N-(1-(2-(cyclopropanesulfonamido)thiazol-4-yl)propyl)-4-(6-ethoxypyrazin-2-yl)-2-fluorobenzamide] | – | Selectivity (fold selectivity between CTPS1 and CTPS2) (human CTPS1 [1]; [3]): +++ (>60 fold (+++))
CCOc1cncc(-c2ccc(C(=O)N(C)C(CC)c3csc(NS(=O)(=O)C4CC4)n3)c(F)c2)n1 (racemic) [R63, N-(1-(2-(cyclopropanesulfonamido)thiazol-4-yl)propyl)-4-(6-ethoxypyrazin-2-yl)-2-fluoro-N-methylbenzamide] | – | Selectivity (fold selectivity between CTPS1 and CTPS2) (human CTPS1 [1]; [3]): + (2-30 fold (+))
CCC(NC(=O)c1ccc(-c2cncc(OC(C)C)n2)cc1F)c1csc(NS(=O)(=O)C2CC2)n1 (racemic) [R64, N-(1-(2-(cyclopropanesulfonamido)thiazol-4-yl)propyl)-2-fluoro-4-(6-isopropoxypyrazin-2-yl)benzamide] | – | Selectivity (fold selectivity between CTPS1 and CTPS2) (human CTPS1 [1]; [3]): ++ (>30-60 fold (++))
CCOc1cncc(-c2ccc(NC(=O)C(F)(CC)c3ccnc(NS(=O)(=O)C4CC4)n3)nc2)n1 (single isomer, unassigned) [P113, 2-(2-(Cyclopropanesulfonamido)pyrimidin-4-yl)-N-(5-(6-ethoxypyrazin-2-yl)pyridin-2-yl)-2-fluorobutanamide] | – | Selectivity (fold selectivity between CTPS1 and CTPS2) (human CTPS1 [1]; [4]): + (2-30 fold (+))
CCOc1cncc(-c2ccc(NC(=O)C(F)(CC)c3ccnc(NS(=O)(=O)C4CC4)n3)nc2)n1 (single isomer, unassigned) [P114, 2-(2-(Cyclopropanesulfonamido)pyrimidin-4-yl)-N-(5-(6-ethoxypyrazin-2-yl)pyridin-2-yl)-2-fluorobutanamide] | – | Selectivity (fold selectivity between CTPS1 and CTPS2) (human CTPS1 [1]; [4]): +++ (>60 fold (+++))
CCOc1cncc(-c2ccc(NC(=O)C(C)(OC)c3cncc(NS(=O)(=O)C4CC4)n3)nc2)n1 (single isomer, unassigned) [P205a, 2-(6-(cyclopropanesulfonamido)pyrazin-2-yl)-N-(5-(6-ethoxypyrazin-2-yl)pyridin-2-yl)-2-methoxypropanamide] | – | Selectivity (fold selectivity between CTPS1 and CTPS2) (human CTPS1 [1]; [4]): +++ (>60 fold (+++))
CCOc1cncc(-c2ccc(NC(=O)C(C)(OC)c3cncc(NS(=O)(=O)C4CC4)n3)nc2)n1 (single isomer, unassigned) [P205b, 2-(6-(cyclopropanesulfonamido)pyrazin-2-yl)-N-(5-(6-ethoxypyrazin-2-yl)pyridin-2-yl)-2-methoxypropanamide] | – | Selectivity (fold selectivity between CTPS1 and CTPS2) (human CTPS1 [1]; [4]): ++ (>30-60 fold (++))
CCOc1cncc(-c2ccc(NC(=O)C(F)(CC)c3cncc(NS(=O)(=O)C4CC4)n3)nc2)n1 (single isomer, unassigned) [P206, 2-(6-(2-cyclopropanesulfonamido)pyrazin-2-yl)-N-(5-(6-ethoxypyrazin-2-yl)pyridin-2-yl)-2-fluorobutanamide] | – | Selectivity (fold selectivity between CTPS1 and CTPS2) (human CTPS1 [1]; [4]): +++ (>60 fold (+++))

Continued, in another order:

IC50 (human CTPS1 [2]) [nM] | SMILES | also measured
< 100 | CCOc1cncc(-c2ccc(NC(=O)Cc3csc(NS(=O)(=O)C4CC4)n3)cc2)n1 [T424, 2-(2-(cyclopropanesulfonamido)thiazol-4-yl)-N-(4-(6-ethoxypyrazin-2-yl)phenyl)acetamide] | –
< 100 | CC(C)(C(=O)Nc1ccc(-c2cncc(C(F)(F)F)n2)cn1)c1csc(NS(C)(=O)=O)n1 [T425, 2-methyl-2-(2-(methylsulfonamido)thiazol-4-yl)-N-(5-(6-(trifluoromethyl)pyrazin-2-yl)pyridin-2-yl)propanamide] | –
100 to 1000 | CC(C)(C(=O)Nc1ccc(-c2cncc(C(F)(F)F)c2)cc1F)c1csc(NS(C)(=O)=O)n1 [T426, N-(2-fluoro-4-(5-(trifluoromethyl)pyridin-3-yl)phenyl)-2-methyl-2-(2-(methylsulfonamido)thiazol-4-yl)propanamide] | –
100 to 1000 | CC(C)(C(=O)Nc1ccc(-c2cncc(C(F)(F)F)c2)cc1F)c1csc(NS(=O)(=O)CC2CC2)n1 [T427, 2-(2-((cyclopropylmethyl)sulfonamido)thiazol-4-yl)-N-(2-fluoro-4-(5-(trifluoromethyl)pyridin-3-yl)phenyl)-2-methylpropanamide] | –
100 to 1000 | Cc1c(Cl)cncc1-c1ccc(NC(=O)C(C)(C)c2csc(NS(=O)(=O)C3CC3)n2)cc1 [T428, N-(4-(5-chloro-4-methylpyridin-3-yl)phenyl)-2-(2-(cyclopropanesulfonamido)thiazol-4-yl)-2-methylpropanamide] | –
< 100 | CCOc1cncc(-c2ccc(NC(=O)C(C)(C)c3csc(NS(C)(=O)=O)n3)c(C(F)(F)F)c2)n1 [T429, N-(4-(6-ethoxypyrazin-2-yl)-2-(trifluoromethyl)phenyl)-2-methyl-2-(2-(methylsulfonamido)thiazol-4-yl)propanamide] | –
100 to 1000 | CC(C)(C(=O)Nc1ccc(-c2cncc(C(F)(F)F)n2)cc1F)c1csc(NS(=O)(=O)CC2CC2)n1 [T430, 2-(2-((cyclopropylmethyl)sulfonamido)thiazol-4-yl)-N-(2-fluoro-4-(6-(trifluoromethyl)pyrazin-2-yl)phenyl)-2-methylpropanamide] | –
< 100 | CCOc1cncc(-c2ccc(NC(=O)C(C)(C)c3csc(NS(C)(=O)=O)n3)c(F)c2)n1 [T431, N-(4-(6-ethoxypyrazin-2-yl)-2-fluorophenyl)-2-methyl-2-(2-(methylsulfonamido)thiazol-4-yl)propanamide] | –
100 to 1000 | CCOc1cncc(-c2ccc(NC(=O)C(C)(C)c3csc(NS(=O)(=O)CCOC)n3)c(F)c2)n1 [T432, N-(4-(6-ethoxypyrazin-2-yl)-2-fluorophenyl)-2-(2-((2-methoxyethyl)sulfonamido)thiazol-4-yl)-2-methylpropanamide] | –
< 100 | CCOc1cncc(-c2ccc(NC(=O)C(C)(C)c3csc(NS(C)(=O)=O)n3)cc2)n1 [T434, N-(4-(6-ethoxypyrazin-2-yl)phenyl)-2-methyl-2-(2-(methylsulfonamido)thiazol-4-yl)propanamide] | –
< 100 | Cc1cncc(-c2ccc(NC(=O)C(C)(C)c3csc(NS(=O)(=O)C4CC4)n3)nc2)n1 [T464, 2-(2-(cyclopropanesulfonamido)thiazol-4-yl)-2-methyl-N-(5-(6-methylpyrazin-2-yl)pyridin-2-yl)propanamide] | –
1000 to 10000 | Cc1cc(-c2cncc(C#N)n2)ccc1NC(=O)C(C)(C)c1csc(NS(=O)(=O)C2CC2)n1 [T465, N-(4-(6-cyanopyrazin-2-yl)-2-methylphenyl)-2-(2-(cyclopropanesulfonamido)thiazol-4-yl)-2-methylpropanamide] | –
